Reference: patent US12473262B2, “Aryl hydrocarbon receptor activators” (Oregon State University, priority 2019, dated 2025)
pIC50: −log10 of the molar value. Read-outs that look alike come from different tables or passages of the source.

Experiments:
[1] = In vivo PK study, intravenous and oral administration in male mice; design: species or system mouse; settings: plasma; for C0: read-out: C0_Cmax
Procedure: In Vivo PK Study Pharmacokinetics of Exemplary Compounds 362 and 893 Following an Intravenous and Oral Administration in Male C57BL/6J Mice.
Male C57BL/6J mice, approximately 8-10 weeks old, were obtained from the vivarium of Fundación Ciencia & Vida Chile (Santiago, Chile). Dosing solution of Compound 362 for PO administration was formulated in a vehicle containing 40% DMSO, 20% Kolliphor EL, 40% Propylene Glycol at 0.8 mg/mL. Dosing solution of Compound 362 for IV administration was formulated in a vehicle containing 30% DMSO, 20% Kolliphor EL, 50% PBS at […].
Male […] mice, approximately 8-11 weeks old, 22-27 grams were obtained from the vivarium Fundación Ciencia & Vida Chile (Santiago, Chile). Animals were acclimated for a minimum period of 4 days upon arrival at the testing facility. Animals were weighed, identified by marking the tail with numbers using a non-toxic permanent marker and designated into the following treatment groups on the day of dosing:
Group 1 animals received an IV administration via caudal vein of 2 mg/kg PRXS0362 dosing solution.
Group 2 animals received a PO administration via feeding tubes (20 gauge) of 8 mg/kg PRXS0362 dosing solution.
Terminal whole blood was collected via cardiac puncture for group 1 at the following time points: 5, 10, 15, 30, 60, 120, 240, 360, and 480 minutes. Non-dosed mice were used to collect samples of zero time points. For the group 2 at the following time point: 15, 30, 60, 120, 240, 360, and 480 minutes.
Whole blood, approximately 300 μL per time point, was collected into microtainer tubes with EDTA (K2). Blood samples were centrifuged immediately at approximately 9,000 G at 4° C. for 5 minutes and plasma separated. Plasma samples were placed into individually labeled tubes and stored in a −80° C. freezer prior to LC/MS/MS analysis.
The whole brain was collected at each point only for both groups, for this the animals were euthanized with CO2, decapitated, the brain was extracted weighed, frozen in liquid nitrogen and stored at −80° C. prior to LC/MS/MS analysis.
Compound 893 was tested by the same protocol as above.

[2] = Liver microsomal stability, rat; settings: for Rem @ RLM × 30 min: rat liver microsomes, 1 μM compound, 0.5 mg/ml protein; for half-life at 1 μM / microsomal CLint at 1 μM: rat, liver microsomes, pH 7.4
Procedure: (§3) The assessment of metabolic stability of testing compounds was performed using human, mouse, rat, dog and monkey liver microsomes (20 mg protein/ml). Each reaction mixture contained 42.5 μL of 0.1 M potassium phosphate buffer pH 7.4, containing respective LM protein (final concentration 0.5 mg/ml). 2.5 μL of the compound stock solution was added in it (1 μM final concentration). The reaction was initiated by the addition of 5 μL NADPH solution (final Concentration 1 mM). At different time points (0, 5, 15, and 30 minutes), samples were quenched with 200 μL of cold acetonitrile containing ISTD Propranolol. Samples were centrifuged at 3500 rpm for 20 mM at 4° C. Supernatant was subjected to LC-MS/MS analysis for quantification. Verapamil was used as a positive control.

[3] = Liver microsomal stability, mouse; settings: for Rem @ MLM × 30 min: mouse liver microsomes, 1 μM compound, 0.5 mg/ml protein; for half-life at 1 μM / microsomal CLint at 1 μM: mouse, liver microsomes, pH 7.4
Procedure: as §3

[4] = biological target: aryl hydrocarbon receptor (AhR) (Mus musculus (Mouse), UniProt P30561); assay: AhR ligand screening: AhRE-luciferase reporter in transfected Hepa1 cells; format: cell-based; settings: for Fold @ 1 nM: fold change of luciferase expression at 1 nM test compound relative to vehicle (0.1% DMSO); for Fold @ 100 nM: fold change of luciferase expression at 100 nM test compound relative to vehicle (0.1% DMSO); for Fold relative to benchmark @ 100 nM: luciferase expression at 100 nM test compound relative to 100 nM benchmark compound 11-cl-BBQ; for Fold @ 10 uM: fold change of luciferase expression at 10 uM test compound relative to vehicle (0.1% DMSO)
Summary of the method: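 Values are fold luciferase induction relative to vehicle (0.1% DMSO), read by luminometry of lysates from Hepa1 cells carrying an AhRE-driven luciferase reporter. Cells were seeded at 1×10^4 per well, grown overnight and treated with compound before lysis.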

CYP-1A2 = CYP-1A2 (Homo sapiens (Human), UniProt P05177); assay: CYP panel profile: P450 inhibition, CYP-1A2; format: in vitro ADME
Chain of CYP-1A2 (P05177 whole entry): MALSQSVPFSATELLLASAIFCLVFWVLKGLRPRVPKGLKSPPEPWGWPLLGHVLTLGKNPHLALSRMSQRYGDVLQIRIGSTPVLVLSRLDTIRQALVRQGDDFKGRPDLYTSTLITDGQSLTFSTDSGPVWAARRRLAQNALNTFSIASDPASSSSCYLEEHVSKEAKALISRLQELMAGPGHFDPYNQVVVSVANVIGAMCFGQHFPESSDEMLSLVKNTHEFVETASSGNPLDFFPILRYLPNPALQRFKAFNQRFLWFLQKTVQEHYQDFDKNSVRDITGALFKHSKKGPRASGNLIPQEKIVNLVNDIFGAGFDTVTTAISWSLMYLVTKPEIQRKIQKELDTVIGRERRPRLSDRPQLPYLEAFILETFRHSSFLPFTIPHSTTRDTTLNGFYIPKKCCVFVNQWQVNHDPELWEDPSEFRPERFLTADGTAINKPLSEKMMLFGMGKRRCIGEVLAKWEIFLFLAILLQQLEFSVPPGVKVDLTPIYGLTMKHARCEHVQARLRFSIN
Procedure: (§1) 5. CYP Panel Profile: P450 Inhibition
(§2) From 10 mM stock solutions of test compounds, a dilution plate was prepared diluting serially starting from 5 mM up to 2 μM in Acetonitrile/DMSO or Methanol/DMSO Human liver Microsomes were added at required concentration as per specific CYP isoform in a deep well assay plate (1A2, 2C9, 2D6, 2B6, 2C8, 2C19, and 3A4). Compounds were spiked in all wells from dilution plate at final concentrations starting from 50 μM up to 0.02 μM, except for positive and negative control. Specific substrate were added to all wells and reactions were pre-incubated for 10 min. To start reactions, NADPH was added to all wells at 1 mM final concentration. Assay plate was mixed by vortexing and incubated at 37° C. for […] for 3A4.20 min for (1A2, 2C9, 2B6, 2C8, 2D6) and […] for 2C19. A quencher with chilled acetonitrile suitable internal standard was added. Samples were centrifuged and supernatants were collected and subjected to LC-MS/MS analysis for determination.

CYP-3A4 = CYP-3A4 (Homo sapiens (Human), UniProt P08684); assay: CYP panel profile: P450 inhibition, CYP-3A4; format: in vitro ADME; settings: human liver microsomes
Chain of CYP-3A4 (P08684 whole entry): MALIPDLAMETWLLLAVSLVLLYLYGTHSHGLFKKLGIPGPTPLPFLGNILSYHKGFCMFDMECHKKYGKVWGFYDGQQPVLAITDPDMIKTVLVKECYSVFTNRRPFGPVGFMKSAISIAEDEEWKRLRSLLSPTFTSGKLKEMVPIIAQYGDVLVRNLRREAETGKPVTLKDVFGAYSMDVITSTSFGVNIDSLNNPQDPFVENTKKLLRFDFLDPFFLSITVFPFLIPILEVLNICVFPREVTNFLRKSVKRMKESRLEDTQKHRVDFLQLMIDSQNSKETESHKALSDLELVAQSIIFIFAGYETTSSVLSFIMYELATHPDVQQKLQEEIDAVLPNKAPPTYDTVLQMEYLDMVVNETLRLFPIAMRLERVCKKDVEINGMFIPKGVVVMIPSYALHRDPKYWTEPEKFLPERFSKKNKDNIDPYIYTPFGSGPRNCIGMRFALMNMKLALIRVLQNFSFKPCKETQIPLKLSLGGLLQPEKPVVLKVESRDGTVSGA
Procedure: as §1, §2

CYP-2C9 = CYP-2C9 (Homo sapiens (Human), UniProt P11712); assay: CYP panel profile: P450 inhibition, CYP-2C9; format: in vitro ADME; settings: human liver microsomes
Chain of CYP-2C9 (P11712 whole entry): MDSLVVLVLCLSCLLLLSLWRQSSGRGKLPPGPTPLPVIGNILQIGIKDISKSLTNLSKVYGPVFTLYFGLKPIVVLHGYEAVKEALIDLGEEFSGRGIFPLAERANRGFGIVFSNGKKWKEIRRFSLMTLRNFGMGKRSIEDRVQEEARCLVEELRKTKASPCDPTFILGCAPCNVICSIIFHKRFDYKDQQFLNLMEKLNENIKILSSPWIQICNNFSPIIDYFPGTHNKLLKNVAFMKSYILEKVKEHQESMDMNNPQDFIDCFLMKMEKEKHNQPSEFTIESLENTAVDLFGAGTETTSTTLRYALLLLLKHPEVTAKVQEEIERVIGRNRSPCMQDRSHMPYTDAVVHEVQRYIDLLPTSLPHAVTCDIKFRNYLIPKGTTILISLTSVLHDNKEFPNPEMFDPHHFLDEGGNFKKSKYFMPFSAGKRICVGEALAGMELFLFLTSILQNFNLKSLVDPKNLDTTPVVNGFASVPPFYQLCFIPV
Procedure: as §1, §2

CYP-2B6 = CYP-2B6 (Homo sapiens (Human), UniProt P20813); assay: CYP panel profile: P450 inhibition, CYP-2B6; format: in vitro ADME; settings: human liver microsomes
Chain of CYP-2B6 (P20813 whole entry): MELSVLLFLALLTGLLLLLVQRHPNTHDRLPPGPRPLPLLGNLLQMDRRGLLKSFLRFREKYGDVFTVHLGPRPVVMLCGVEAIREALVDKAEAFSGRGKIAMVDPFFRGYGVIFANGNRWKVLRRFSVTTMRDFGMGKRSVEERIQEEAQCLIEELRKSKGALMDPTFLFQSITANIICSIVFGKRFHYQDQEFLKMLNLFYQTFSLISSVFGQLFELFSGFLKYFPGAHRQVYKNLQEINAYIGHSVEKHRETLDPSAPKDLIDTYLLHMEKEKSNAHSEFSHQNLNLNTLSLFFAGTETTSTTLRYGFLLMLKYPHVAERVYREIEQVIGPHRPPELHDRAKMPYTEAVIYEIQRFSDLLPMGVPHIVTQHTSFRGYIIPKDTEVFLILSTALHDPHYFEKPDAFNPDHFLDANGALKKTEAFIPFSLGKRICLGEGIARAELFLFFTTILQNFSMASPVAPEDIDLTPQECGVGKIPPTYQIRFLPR
Procedure: as §1, §2

CYP-2C8 = CYP-2C8 (Homo sapiens (Human), UniProt P10632); assay: CYP panel profile: P450 inhibition, CYP-2C8; format: in vitro ADME; settings: human liver microsomes
Chain of CYP-2C8 (P10632 whole entry): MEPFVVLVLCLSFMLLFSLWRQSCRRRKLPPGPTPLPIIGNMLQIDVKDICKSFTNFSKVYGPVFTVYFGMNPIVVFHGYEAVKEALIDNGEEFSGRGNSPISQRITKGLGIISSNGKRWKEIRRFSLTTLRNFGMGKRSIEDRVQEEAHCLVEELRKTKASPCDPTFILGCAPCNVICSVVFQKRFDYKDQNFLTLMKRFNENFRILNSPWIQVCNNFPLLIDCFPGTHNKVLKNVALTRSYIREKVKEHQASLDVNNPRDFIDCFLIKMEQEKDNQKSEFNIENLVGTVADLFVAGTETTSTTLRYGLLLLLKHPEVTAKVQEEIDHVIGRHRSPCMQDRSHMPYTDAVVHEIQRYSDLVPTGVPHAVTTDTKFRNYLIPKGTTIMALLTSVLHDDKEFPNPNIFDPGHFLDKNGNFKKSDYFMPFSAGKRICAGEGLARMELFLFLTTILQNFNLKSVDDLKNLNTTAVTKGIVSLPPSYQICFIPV
Procedure: as §1, §2

CYP-2C19 = CYP-2C19 (Homo sapiens (Human), UniProt P33261); assay: CYP panel profile: P450 inhibition, CYP-2C19; format: in vitro ADME; settings: human liver microsomes
Chain of CYP-2C19 (P33261 whole entry): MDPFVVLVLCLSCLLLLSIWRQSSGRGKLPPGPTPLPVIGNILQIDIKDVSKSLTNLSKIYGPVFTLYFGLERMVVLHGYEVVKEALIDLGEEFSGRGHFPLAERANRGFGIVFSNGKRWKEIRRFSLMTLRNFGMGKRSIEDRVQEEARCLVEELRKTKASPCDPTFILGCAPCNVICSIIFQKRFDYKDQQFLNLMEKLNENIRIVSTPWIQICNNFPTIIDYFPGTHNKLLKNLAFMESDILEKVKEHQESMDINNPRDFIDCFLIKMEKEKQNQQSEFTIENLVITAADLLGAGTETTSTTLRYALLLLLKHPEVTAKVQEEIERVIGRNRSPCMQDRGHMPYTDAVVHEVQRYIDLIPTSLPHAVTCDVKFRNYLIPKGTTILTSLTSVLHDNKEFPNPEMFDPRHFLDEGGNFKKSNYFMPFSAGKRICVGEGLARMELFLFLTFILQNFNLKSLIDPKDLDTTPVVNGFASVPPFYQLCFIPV
Procedure: as §1, §2

CYP-2D6 = CYP-2D6 (Homo sapiens (Human), UniProt P10635); assay: CYP panel profile: P450 inhibition, CYP-2D6; format: in vitro ADME; settings: human liver microsomes
Chain of CYP-2D6 (P10635 whole entry): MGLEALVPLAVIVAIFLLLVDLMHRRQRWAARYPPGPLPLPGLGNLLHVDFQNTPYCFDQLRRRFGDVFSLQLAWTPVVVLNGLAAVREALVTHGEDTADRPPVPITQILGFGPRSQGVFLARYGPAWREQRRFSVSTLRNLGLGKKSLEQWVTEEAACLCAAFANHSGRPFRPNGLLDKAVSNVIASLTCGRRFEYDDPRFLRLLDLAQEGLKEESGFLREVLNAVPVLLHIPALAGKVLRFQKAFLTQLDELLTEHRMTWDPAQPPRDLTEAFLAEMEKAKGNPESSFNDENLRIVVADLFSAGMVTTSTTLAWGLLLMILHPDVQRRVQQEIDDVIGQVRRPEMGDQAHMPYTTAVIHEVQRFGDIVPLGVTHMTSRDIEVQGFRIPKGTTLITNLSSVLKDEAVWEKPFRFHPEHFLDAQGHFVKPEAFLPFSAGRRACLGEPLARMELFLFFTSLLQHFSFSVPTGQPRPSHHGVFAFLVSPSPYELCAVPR
Procedure: as §1, §2

[5] = Liver microsomal stability, human; settings: for Rem @ HLM × 30 min: human liver microsomes, 1 μM compound, 0.5 mg/ml protein; for half-life at 1 μM / microsomal CLint at 1 μM: human, liver microsomes, pH 7.4
Procedure: as §3

[6] = human liver microsomes, read-out: CYP-1A2 IC50

| Compound | Rem @ RLM × 30 min [2] | half-life at 1 μM [2] | microsomal CLint at 1 μM [2] | Rem @ MLM × 30 min [3] | half-life at 1 μM [3] | microsomal CLint at 1 μM [3] | Fold @ 1 nM [4] | Fold @ 100 nM [4] | Fold relative to benchmark @ 100 nM [4] | pIC50 (CYP-3A4) | pIC50 (CYP-2C9) | pIC50 (CYP-2B6) | pIC50 (CYP-2C8) | pIC50 (CYP-2C19) | pIC50 (CYP-2D6) | Fold @ 10 uM [4] | pIC50 (CYP-1A2; [6]) | also measured |
| --- | --- | --- | --- | --- | --- | --- | --- | --- | --- | --- | --- | --- | --- | --- | --- | --- | --- | --- |
| O=c1c2cccc3cccc(c32)c2nc3cc(Cl)ccc3n12 [Compound 362, 6-chloro-3,10-diazapentacyclo[10.7.1.0^2,10.0^4,9.0^16,20]icosa-1(19),2,4(9),5,7,12,14,16(20),17-nonaen-11-one] | 14.5% | 11.4 min | 121 µL/min/mg | 12.0% | 9.8 min | 141 µL/min/mg | 16 fold | 22 fold | 1 fold |  |  |  |  |  |  |  |  | CL_CL/F ([1]; IV 2 mg/Kg): 4.418 L/[Kg*h]; Vd_Vd/F ([1]; IV 2 mg/Kg): 5.67 L/kg; thalf ([1]; IV 2 mg/Kg): 0.889 h; CL_CL/F ([1]; PO 8 mg/Kg): 7.86 L/[Kg*h]; Vd_Vd/F ([1]; PO 8 mg/Kg): 8.314 L/kg; thalf ([1]; PO 8 mg/Kg): 0.733 h; AUC(0-inf) ([1]; mouse, IV 2 mg/Kg): 453 ng·h/mL; AUC(0-t) ([1]; mouse, IV 2 mg/Kg): 451 ng·h/mL; MRT ([1]; mouse, IV 2 mg/Kg): 52.3 min; C0 ([1]; mouse, IV 2 mg/Kg): 215 ng/mL; bioavailability ([1]; mouse, PO 8 mg/Kg vs IV 2 mg/Kg): 56.2%; AUC(0-inf) ([1]; mouse, PO 8 mg/Kg): 1020 ng·h/mL; AUC(0-t) ([1]; mouse, PO 8 mg/Kg): 1020 ng·h/mL; MRT ([1]; mouse, PO 8 mg/Kg): 98 min; Tmax ([1]; mouse, PO 8 mg/Kg): 60 min; C0 ([1]; mouse, PO 8 mg/Kg): 427 ng/mL |
| Clc1ccc2c(c1)nc1n2Cc2cccc3cccc-1c23 [Compound 435, 6-chloro-3,10-diazapentacyclo[10.7.1.0^2,10.0^4,9.0^16,20]icosa-1(19),2,4(9),5,7,12,14,16(20),17-nonaene] |  |  |  |  |  |  | 4 fold | 28 fold | 0.7 fold | 5.28 | < 4.30 | < 4.30 | 4.72 | < 4.30 | < 4.30 | 60 fold |  | pIC50 (CYP-1A2): > 7.70 |
| O=C(c1ccccc1)n1c(-c2cccc3ccccc23)nc2cc(Cl)ccc21 [Compound 494] |  |  |  |  |  |  | 1 fold | 29 fold | 0.94 fold | 5.92 | 5.38 | < 4.35 | 5.60 | 5.28 | < 4.30 | 43 fold | 6.15 |  |
| O=C(c1ccccc1)n1c(-c2cccc3ccccc23)nc2ccc(Cl)cc21 [Compound 495] |  |  |  |  |  |  | 2.3 fold | 25 fold | 0.81 fold | 5.28 | 5.25 | 4.71 | 5.72 | 5.85 | 4.49 | 59 fold | 6.52 |  |
| O=C(c1ccc(F)c(F)c1)n1c(-c2cccc3ccccc23)nc2cc(Cl)ccc21 [Compound 529] |  |  |  |  |  |  | 2 fold | 41 fold | 1.03 fold | 5.92 | 5.46 | 5.02 | 5.02 | 5.44 | < 4.30 | 52 fold | 6.22 |  |
| O=C(c1ccc(F)c(F)c1)n1c(-c2cccc3ccccc23)nc2cc(Cl)ccc21 [Compound 530] |  |  |  |  |  |  | 2 fold | 39 fold | 0.98 fold | 5.43 | 5.30 | 5.03 | 5.03 | 5.47 | < 4.30 | 56 fold | 6.30 |  |
| COc1ccc(C(=O)n2c(-c3cccc4ccccc34)nc3cc(Cl)ccc32)cc1 [Compound 535, (5-chloro-2-(naphthalen-1-yl)-1H-benzo[d]imidazol-1-yl)(4-methoxyphenyl)methanone] |  |  |  |  |  |  | 1 fold | 38 fold | 0.95 fold | 6.70 | 5.60 | 4.67 | 4.66 | 5.68 | < 4.30 | 44 fold | 5.41 |  |
| COc1ccc(C(=O)n2c(-c3cccc4ccccc34)nc3ccc(Cl)cc32)cc1 [Compound 536, (6-chloro-2-(naphthalen-1-yl)-1H-benzo[d]imidazol-1-yl)(4-methoxyphenyl)methanone] |  |  |  |  |  |  | 1 fold | 39 fold | 0.98 fold | 5.77 | 5.32 | 4.80 | 4.77 | 5.59 | < 4.30 | 41 fold | 6.22 |  |
| O=C(c1cccc2ccccc12)n1c(-c2cccc3ccccc23)nc2cc(Cl)ccc21 [Compound 704] |  |  |  |  |  |  |  |  |  | 5.41 | 5.05 | 5.09 | 5.25 | 5.34 | < 4.30 |  | 5.92 |  |
| CN(C)c1ccc(C(=O)c2c[nH]c3ccc(Cl)cc23)cc1 [Compound 891] | 45.2% | 31 min | 44.7 µL/min/mg | 52.4% | 36.3 min | 38.2 µL/min/mg | 1 fold | 1 fold | 0.02 fold |  |  |  |  |  |  | 21 fold |  | Rem @ HLM × 30 min [5]: 54.3%; half-life at 1 μM [5]: 42.4 min; microsomal CLint at 1 μM [5]: 32.7 µL/min/mg |
| O=C(c1ccccc1)c1c[nH]c2ccc(Cl)cc12 [Compound 892] | 64.9% | 57 min | 24.3 µL/min/mg | 36.7% | 21 min | 66.1 µL/min/mg | 1 fold | 1 fold | 0.02 fold |  |  |  |  |  |  | 15 fold |  | Rem @ HLM × 30 min [5]: 24.7%; half-life at 1 μM [5]: 15.3 min; microsomal CLint at 1 μM [5]: 90.7 µL/min/mg |
| COc1ccc(C(=O)c2c[nH]c3ccc(Cl)cc23)cc1 [Compound 894] | 58.1% | 43 min | 32.3 µL/min/mg | 54.5% | 37.6 min | 36.9 µL/min/mg | 1 fold | 1 fold | 0.02 fold |  |  |  |  |  |  | 7 fold |  | Rem @ HLM × 30 min [5]: 57.9%; half-life at 1 μM [5]: 45.3 min; microsomal CLint at 1 μM [5]: 30.6 µL/min/mg |
